“Also recorded” adds a separate entry of the source.
Columns and labels:
HF57 = assay: 3-germ layer immunocytochemistry of embryoid bodies (FIG. 29); type: cell-based, human; conditions: compared with H1 and iPSCs
Text: (§1) Pluripotent cells can differentiate into all cell types, so these cells can be a biological resource for regenerative medicine. Somatic cells can acquire the embryonic stem cell-like pluripotency by the introduction of four transcription factors, Oct4, Sox2, Klf4 and c-Myc (Yamanaka factors). Murine ES-like cell lines were established from mouse embryonic fibroblasts (MEFs) and skin fibroblasts by simply expressing these four transcription factor genes encoding Oct4, Sox2, Klf4, and c-Myc (71). After introducing active transcription factors into somatic cells, the somatic cells closely resemble ES cells in gene expression patterns, cell biologic and phenotypic characteristics. Since then, numerous studies have established that these transcription factors mediate reprogramming regardless of developmental origins and epigenetic states of a cell. These transcription factors are non-functional in somatic cells due to gene silencing. […] Using the technology disclosed herein, nuclear reprogramming of somatic cells was induced possibly due to active Oct4, Sox2, Nanog, and other pluripotency genes, reduced DNA methylation, reduced histone methylation, and altered metabolism of certain biochemical factors (such as glutamine, glutamate, and GABA). This leads to the formation of embryoid bodies from single cells and differentiation into the mesoderm, endoderm, and neuronal ectoderm lineages with high efficiency in the differentiation medium. The 3-Germ Layer Immunocytochemistry Kit (ThermoFisher Scientific, USA), which analyzes spontaneously differentiated embryoid bodies derived from pluripotent stem cells for the presence of all 3-germ layers, was used to confirm the reprogramming. The assay detected widely accepted markers characteristic of the three embryonic germ layers: beta-Ill tubulin (TUJ1) for ectoderm, smooth muscle actin (SMA) for mesoderm, and alpha-fetoprotein (AFP) for endoderm. […] The ectoderm which differentiates to form the nervous system (spine, peripheral nerves, neurons, and brain) was not tested with this kit; however, the presence of neurons was confirmed by a different marker. A Human Neural Stem Cell Immunocytochemistry Kit (ThermoFisher Scientific, USA) which enables a convenient image-based analysis of common markers of human neural stem cells such as Nestin was used. […] Together, the disclosed methods result in the presence of all 3-germ layers in the MTX/PTX treated cells and these treated cells can differentiate into all cell types including beta cells.
(§2) A 3-germ layer immunocytochemistry kit (Thermo Fisher Scientific, USA) was used to assess the pluripotency of embryoid bodies derived from MTX and PTX treated cells.

HEK293T cells [1] = assay: as above; type: cell-based, human; conditions: compared with H1 and iPSCs
Text: as §1, §2

HEK293T cells [2] = assay: Histone methylation levels (FIG. 19); type: cell-based, human; conditions: vs control
Experimental: (§3) Calculation of methylation level (based on OD values as shown on y-axis) was performed according to manufacturer's instructions. Representative histogram from three independent experiments are shown. All data are presented as the mean±standard error (SE) of triplicate measurements. *P<0.05, ***P<0.001.

HF57 cells = assay: Histone methylation levels (FIG. 19); type: cell-based, human; conditions: vs control
Experimental: as §3

[3] = test system: human fibroblast (HF57) cells; assay: Immunofluorescence of pluripotency surface markers (FIG. 25, 26); type: cell-based; conditions: for SSEA-4 and TRA 1-60 surface markers immunofluorescence: 1 μM for 7 days, DMEM with low methionine (15 mg/L)
Experimental: Post MTX treatment, the cells were labeled using primary antibodies (ant-SSEA4-anti mouse IgG3) followed by secondary antibodies conjugated to Alexa Fluor 488 goat anti-mouse IgG3. The cells were counterstained with DAPI. […] The cells were grown in regular DMEM medium with or without MTX. Scale Bar=400 μM.
Post MTX treatment, the cells were labeled using primary antibodies (anti-SSEA4-anti mouse IgG3 and anti-TRA 1-60 host-rabbit) followed by secondary antibodies conjugated to (Alexa Fluor 488 goat anti-mouse IgG3 and Alexa Fluor 594 donkey anti-rabbit). The cells were counterstained with DAPI. […] The cells were grown in DMEM medium with low methionine (15 mg/L). Scale Bar=400 μM (FIG. 26A); Scale Bar=200 μM (FIG. 26B).
Immunofluorescence analysis: The relative optimal image-based analysis of 2 key human pluripotent stem cells markers [octamer-binding transcription factor 4 (OCT4) and stage-specific embryonic antigen 4 (SSEA4)] was performed using the Pluripotent Stem Cell Immunocytochemistry Kit (Thermo Fisher Scientific) according to the manufacturer's instructions. Briefly, the cells were grown in 10% FBS DMEM supplemented with NEAAs and Glutamax in wells coated with 0.1% gelatin. For immunofluorescence localization, the cells were stained for SSEA4 and Oct4 and counterstained with DAPI using the kit (Thermo Fisher Scientific). The endogenous proteins were labeled using primary antibodies (anti-SSEA4 anti-mouse IgG3 and anti-OCT4 host-rabbit) followed by secondary antibodies conjugated to Alexa Fluor 488 goat anti-mouse IgG3 and Alexa Fluor 594 donkey anti-rabbit.
The quiescent nature of the MTX and PTX cells and the association of demethylation with the generation of induced pluripotent stem cells led to examining markers for stem cells formation. The 293T and HF57 cells were grown on 5% dialyzed FBS DMEM medium. DMEM without methionine, DMEM with 15 mg/L (half dose) and DMEM with 30 mg/L (regular DMEM) were used to grow the cells. […] Subsequently, the cells were assessed for markers linked to stem cells. […]

293T cells = assay: Embryoid body formation from SSEA4 positive sorted cells (FIG. 27); type: cell-based, human
Experimental: HEK293T and HF57 were treated with MTX and PTX for 7 or more days in low methionine condition. SSEA4 positive cells were sorted using cell sorter and maintained on mTeSR™ Plus medium supplemented with HT.
293T cells were treated with MTX and/or PTX for 10 or more days. SSEA4 positive cells were sorted using single cell sorter and maintained on mTeSR1 medium. […] FIGS. 28-29 show the three-germ layer immunostaining of putative pluripotent stem cells derived from 293T cells treated with MTX and PTX.

[4] = treated 7 or more days, low methionine, mTeSR Plus + HT, after 15-days
[5] = treated 10 or more days, mTeSR1 medium, after 10-days

In the case of `Nc1nc2[nH]cc(CCc3ccc(C(=O)N[C@@H](CCC(=O)O)C(=O)O)cc3)c2c(=O)[nH]1` [PTX, pemetrexed], the “presence of three germ layers in embryoid bodies” value (shortened to “presence of three germ layers”) (HF57) is reported as “confirmed the presence of all three germ layers”, the “presence of three germ layers” value (HEK293T cells [1]) is reported as “confirmed the presence of all three germ layers” and the “Dimethyl H3-K9 methylation” value (HEK293T cells [2]) is reported as “significantly reduced”. For the same molecule, the “global histone H3-K4 methylation” value (HEK293T cells [2]) was “significantly reduced”, the “Dimethyl H3-K9 methylation” value (HF57 cells) was “significantly reduced” and the “global histone H3-K4 methylation” value (HF57 cells) was “significantly reduced”. The “SSEA-4 and TRA 1-60 surface markers immunofluorescence” value [3] was “expression of SSEA-4 and TRA 1-60 surface markers”, the embryoid body formation (293T cells; [4]) was “formed embryoid bodies” and the embryoid body formation (293T cells; [5]) was “started forming embryoid bodies”.

In the case of `CN(Cc1cnc2nc(N)nc(N)c2n1)c1ccc(C(=O)N[C@@H](CCC(=O)O)C(=O)O)cc1` [MTX, methotrexate], the “presence of three germ layers” value (HF57) is reported as “confirmed the presence of all three germ layers”, the “presence of three germ layers” value (HEK293T cells [1]) is reported as “confirmed the presence of all three germ layers” and the “Dimethyl H3-K9 methylation” value (HEK293T cells [2]) is reported as “significantly reduced”. The “global histone H3-K4 methylation” value (HEK293T cells [2]) was “significantly reduced”, the “Dimethyl H3-K9 methylation” value (HF57 cells) was “significantly reduced” and the “global histone H3-K4 methylation” value (HF57 cells) was “significantly reduced”. For the same molecule, the “SSEA-4 surface antigen immunofluorescence” value ([3]; 1 μM for 9-days, regular DMEM, no signals in control cells) was “expression of SSEA-4 surface antigens”, the “SSEA-4 and TRA 1-60 surface markers immunofluorescence” value [3] was “high levels of SSEA-4 and TRA 1-60; also recorded: expression of SSEA-4 and TRA 1-60 surface antigens” and the embryoid body formation (293T cells; [4]) was “formed embryoid bodies”. The embryoid body formation (293T cells; [5]) was “started forming embryoid bodies”.

Reference: patent US20250171744A1, “METHODS OF REPROGRAMMING SOMATIC CELLS AND MATERIALS RELATED THERETO” (CITY OF HOPE, priority 2019, published 2025)
